Patent US20250179078A1, “INHIBITORS OF NLRP3” (PTC THERAPEUTICS, INC., priority 2022, published 2025)

Molecular target: T1, NLRP3 (Homo sapiens, UniProt Q96P20)
T1 construct: host or cells: THP-1 cells differentiated with PMA
Test: IL-1β Secretion Assay (NLRP3-dependent IL1β secretion in THP1 cells)
Type: cell-based
Details: PMA-differentiated THP-1 cells; compounds incubated 20 h; 2.5 μM Nigericin 3 h; HTRF IL-1β readout; read-out: IC50 IL-1β Inhibition
Summary of the method: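 IL-1β in conditioned media, measured by HTRF after 3 h 2.5 μM nigericin stimulation, gave % inhibition fitted logistically for IC50. Before that, PMA-differentiated (100 ng/mL, 24 h) THP-1 cells were preincubated 20 h with 7 compound concentrations (3-fold serial, DMSO 1:200).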

T1 sequence (Q96P20 whole entry): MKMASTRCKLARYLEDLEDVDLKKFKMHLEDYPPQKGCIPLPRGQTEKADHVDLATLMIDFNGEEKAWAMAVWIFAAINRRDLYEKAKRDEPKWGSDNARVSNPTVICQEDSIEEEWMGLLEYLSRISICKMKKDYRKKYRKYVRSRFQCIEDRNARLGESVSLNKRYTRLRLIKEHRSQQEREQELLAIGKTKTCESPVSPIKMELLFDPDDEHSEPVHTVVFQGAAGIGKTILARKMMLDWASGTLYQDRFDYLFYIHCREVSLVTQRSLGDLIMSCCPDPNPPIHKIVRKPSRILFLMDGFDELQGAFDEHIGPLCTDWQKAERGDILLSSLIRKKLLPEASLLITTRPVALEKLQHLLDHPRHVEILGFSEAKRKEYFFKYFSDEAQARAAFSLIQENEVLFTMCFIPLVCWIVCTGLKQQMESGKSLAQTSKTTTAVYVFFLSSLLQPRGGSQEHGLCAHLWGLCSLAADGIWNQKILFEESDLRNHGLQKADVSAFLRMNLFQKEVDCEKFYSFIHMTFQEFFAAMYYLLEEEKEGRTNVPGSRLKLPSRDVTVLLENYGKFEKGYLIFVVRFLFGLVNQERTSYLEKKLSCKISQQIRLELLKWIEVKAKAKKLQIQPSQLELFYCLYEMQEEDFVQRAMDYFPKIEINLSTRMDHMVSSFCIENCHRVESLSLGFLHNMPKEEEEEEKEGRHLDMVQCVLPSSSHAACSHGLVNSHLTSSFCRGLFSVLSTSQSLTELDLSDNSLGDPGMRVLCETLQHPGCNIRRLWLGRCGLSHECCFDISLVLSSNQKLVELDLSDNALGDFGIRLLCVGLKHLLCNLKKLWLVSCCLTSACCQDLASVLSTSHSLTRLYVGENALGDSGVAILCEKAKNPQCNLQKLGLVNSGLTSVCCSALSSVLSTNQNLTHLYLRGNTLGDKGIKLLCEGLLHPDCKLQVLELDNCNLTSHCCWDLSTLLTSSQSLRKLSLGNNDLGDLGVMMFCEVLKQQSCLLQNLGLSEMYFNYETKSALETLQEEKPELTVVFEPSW

SMILES | IC50 [nM]
C[C@]1(O)C[C@@H](Nc2nnc(-c3ccc(C(F)(F)F)cc3C(F)(F)F)c3c(F)ccn23)C1 [Compound 38, (1s,3s)-3-({1-[2,4-bis(trifluoromethyl)phenyl]-8-fluoropyrrolo[1,2-d][1,2,4]triazin-4-yl}amino)-1-methylcyclobutan-1-ol] | 10 to 100
O[C@H]1CC[C@@H](Nc2nnc(-c3ccc(C(F)(F)F)cc3C(F)(F)F)c3cncn23)CC1 [Compound 275, (1s,4s)-4-({1-[2,4-bis(trifluoromethyl)phenyl]imidazo[1,5-d][1,2,4]triazin-4-yl}amino)cyclohexan-1-ol] | 10 to 100
FC(F)(F)c1ccc(-c2nnc(N[C@@H]3CCCN(C4CCCOC4)C3)n3cccc23)c(C(F)(F)F)c1 (stereo partly drawn) [Compound 6, 1-[2,4-bis(trifluoromethyl)phenyl]-N-[(3R)-1-(oxan-3-yl)piperidin-3-yl]pyrrolo[1,2-d][1,2,4]triazin-4-amine] | 10 to 100
CN(C)C1CCCN(c2nnc(-c3ccc(C(F)(F)F)cc3C(F)(F)F)c3cccn23)C1 (stereo not drawn) [Compound 7, 1-{1-[2,4-bis(trifluoromethyl)phenyl]pyrrolo[1,2-d][1,2,4]triazin-4-yl}-N,N-dimethylpiperidin-3-amine] | 10 to 100

Continued, values first:

IC50 [nM] | SMILES
10 to 100 | COc1ccc(-c2nnc(N[C@H]3CCCC[C@@H]3O)n3cccc23)c(OC(F)(F)F)c1 [Compound 81, (1S,2S)-2-({1-[4-methoxy-2-(trifluoromethoxy)phenyl]pyrrolo[1,2-d][1,2,4]triazin-4-yl}amino)cyclohexan-1-ol]
1 to 10 | O[C@@H]1CCCC[C@H]1Nc1nnc(-c2ccc(Br)cc2OC(F)(F)F)c2cncn12 [Compound 307, (1R,2R)-2-({1-[4-bromo-2-(trifluoromethoxy)phenyl]imidazo[1,5-d][1,2,4]triazin-4-yl}amino)cyclohexan-1-ol]
